The values that follow come from patent US7186831B2, “5-halo-2-alkyl[1,2,4]triazolo[1,5-a]pyrimidin-7-amines” (priority 2001, dated 2007).

SMILES strings stand for the structures.

The nature of the series: log P by HPLC. It counts as physicochemical. As to conditions: HPLC, gradient method, acetonitrile/0.1% aqueous phosphoric acid; EEC directive 79/831 Annex V. A8.
On to `CCOC(=O)CN(c1c(-c2ccc(F)cc2F)c(Cl)nc2nc(C(F)(F)F)nn12)C1CC1` [compound 554], for which the log partition coefficient (logP) (as a rule, a log measure of how a compound divides between an organic and an aqueous phase) came out at 4.28.
The value for `OC1CCN(c2c(-c3ccc(F)cc3F)c(Cl)nc3nc(C(F)(F)F)nn23)C1` (stereo not drawn) [compound 555] was 2.76; that for `Fc1ccc(-c2c(Cl)nc3nc(C(F)(F)F)nn3c2NC2CCCCC2)c(F)c1` [compound 556] was 4.47.
The value for `CC(Nc1c(-c2ccc(F)cc2F)c(Cl)nc2nc(C(F)(F)F)nn12)C1CCCCC1` (stereo not drawn) [compound 557] was 5.12.
`CCN(CCOC)c1c(-c2ccc(F)cc2F)c(Cl)nc2nc(C(F)(F)F)nn12` [compound 558]: the lipophilicity (logP) is 4.03.
The value for `CCCCNc1c(-c2c(F)cccc2F)c(Cl)nc2nc(C)nn12` [compound 560] was 2.89.
`Cc1nc2nc(Cl)c(-c3c(F)cccc3F)c(N(C)CCN(C)C)n2n1` [compound 561]: the logP came out at 1.28.
The figure for `CCOC(=O)CN(C)c1c(-c2c(F)cccc2F)c(Cl)nc2nc(C)nn12` [compound 562] is 2.62.
The compound `Cc1nc2nc(Cl)c(-c3c(F)cccc3F)c(N(C)CCC#N)n2n1` [compound 563] displayed a logP of 2.17.
The figure for `Cc1nc2nc(Cl)c(-c3c(F)cccc3F)c(N(C)CC#N)n2n1` [compound 564] is 2.18; for `COC(=O)CN(C)c1c(-c2c(F)cccc2F)c(Cl)nc2nc(C)nn12` [compound 565] it is 2.32; for `Cc1nc2nc(Cl)c(-c3c(F)cccc3F)c(N(C)Cc3ccco3)n2n1` [compound 566] it is 2.97.
The figure for `CCN(CCN(C)C)c1c(-c2c(F)cccc2F)c(Cl)nc2nc(C)nn12` [compound 567] is 1.46.
The value for `C=CCN(CC)c1c(-c2c(F)cccc2F)c(Cl)nc2nc(C)nn12` [compound 568] was 3.3; that for `CCN(CCC#N)c1c(-c2c(F)cccc2F)c(Cl)nc2nc(C)nn12` [compound 569] was 2.41; that for `CCCN(Cc1cccs1)c1c(-c2c(F)cccc2F)c(Cl)nc2nc(C)nn12` [compound 570] was 3.96.
In turn, `Cc1nc2nc(Cl)c(-c3c(F)cccc3F)c(N(CCN)C(C)C)n2n1` [compound 571] showed a lipophilicity (logP) of 1.28.
As for `Cc1nc2nc(Cl)c(-c3c(F)cc(F)cc3F)c(N3CCCCO3)n2n1` [compound 574], the log partition coefficient (logP) is given as 3.07.
The figure for `Cc1nc2nc(Cl)c(-c3ccc(F)cc3F)c(N3CCCCO3)n2n1` [compound 576] is 2.95.
The figure for `Cc1nc2nc(Cl)c(-c3c(F)cccc3F)c(N3OCCC3C)n2n1` (stereo not drawn) [compound 578] is 2.61; for `CC(C)C(C)Nc1c(-c2ccccc2Cl)c(Cl)nc2nc(C3CC3)nn12` (stereo not drawn) [compound 579] it is 4.14.
The figure for `CC1C=CC(C)N1c1c(-c2ccccc2Cl)c(Cl)nc2nc(C3CC3)nn12` (stereo not drawn) [compound 580] is 4.19; for `CC(C)C(C)Nc1c(-c2c(F)cc(F)cc2F)c(Cl)nc2nc(C3CC3)nn12` (stereo not drawn) [compound 581] it is 4.03; for `CC1C=CC(C)N1c1c(-c2c(F)cc(F)cc2F)c(Cl)nc2nc(C3CC3)nn12` (stereo not drawn) [compound 582] it is 4.17.
In the case of `CC(C)C(C)Nc1c(-c2c(F)cccc2Cl)c(Cl)nc2nc(C3CC3)nn12` (stereo not drawn) [compound 583], the logP is given as 4.12.
The figure for `CC1C=CC(C)N1c1c(-c2c(F)cccc2Cl)c(Cl)nc2nc(C3CC3)nn12` (stereo not drawn) [compound 584] is 4.15; for `Cc1nc2nc(Cl)c(-c3c(F)cc(F)cc3F)c(N3OCCC3C)n2n1` (stereo not drawn) [compound 585] it is 2.93; for `Cc1nc2nc(Cl)c(-c3ccc(F)cc3Cl)c(NC(C)C(C)C)n2n1` (stereo not drawn) [compound 588] it is 3.6.
The figure for `Cc1nc2nc(Cl)c(-c3ccc(F)cc3Cl)c(N3CCCCO3)n2n1` [compound 589] is 3.23; for `C=CCN(CC)c1c(-c2ccc(F)cc2F)c(Cl)nc2nc(C3CC3)nn12` [compound 591] it is 3.96.
`CCN(Cc1ccco1)c1c(-c2ccc(F)cc2F)c(Cl)nc2nc(C3CC3)nn12` [compound 592]: the lipophilicity (logP) was 3.97.
The value for `CCN(CC1CCCO1)c1c(-c2ccc(F)cc2F)c(Cl)nc2nc(C3CC3)nn12` (stereo not drawn) [compound 593] was 3.78; that for `CCN(CCOC)c1c(-c2ccc(F)cc2F)c(Cl)nc2nc(C3CC3)nn12` [compound 594] was 3.46.
The figure for `CCOC(=O)CN(CC)c1c(-c2ccc(F)cc2F)c(Cl)nc2nc(C3CC3)nn12` [compound 595] is 3.54; for `CCCCN(CC)c1c(-c2ccc(F)cc2F)c(Cl)nc2nc(C3CC3)nn12` [compound 596] it is 4.52; for `CCN(CC)c1c(-c2ccc(F)cc2F)c(Cl)nc2nc(C3CC3)nn12` [compound 597] it is 3.73.
The value for `CCCN(CC1CC1)c1c(-c2ccc(F)cc2F)c(Cl)nc2nc(C3CC3)nn12` [compound 598] was 4.53; that for `CCCN(CC1CCCCO1)c1c(-c2ccc(F)cc2F)c(Cl)nc2nc(C3CC3)nn12` (stereo not drawn) [compound 599] was 4.71.
For the compound `CCCN(CC1CCCO1)c1c(-c2ccc(F)cc2F)c(Cl)nc2nc(C3CC3)nn12` (stereo not drawn) [compound 600], the log partition coefficient (logP) came out at 4.22.
The figure for `CCCN(Cc1cccs1)c1c(-c2ccc(F)cc2F)c(Cl)nc2nc(C3CC3)nn12` [compound 601] is 4.64.
The value for `CCCN(CCOC)c1c(-c2ccc(F)cc2F)c(Cl)nc2nc(C3CC3)nn12` [compound 602] was 3.84; that for `OC1CCN(c2c(-c3ccc(F)cc3F)c(Cl)nc3nc(C4CC4)nn23)C1` (stereo not drawn) [compound 603] was 2.2.
The figure for `CC1CCCN1c1c(-c2ccc(F)cc2F)c(Cl)nc2nc(C3CC3)nn12` (stereo not drawn) [compound 604] is 3.76; for `CN(C)C1CCN(c2c(-c3ccc(F)cc3F)c(Cl)nc3nc(C4CC4)nn23)C1` (stereo not drawn) [compound 605] it is 1.46.
For `Fc1ccc(-c2c(Cl)nc3nc(C4CC4)nn3c2N2CCCC2)c(F)c1` [compound 606], the logP amounted to 3.36.
The figure for `OC1CCN(c2c(-c3ccc(F)cc3F)c(Cl)nc3nc(C4CC4)nn23)CC1` [compound 607] is 2.29; for `Fc1ccc(-c2c(Cl)nc3nc(C4CC4)nn3c2N2CC=CCC2)c(F)c1` [compound 608] it is 3.72.
`Fc1ccc(-c2c(Cl)nc3nc(C4CC4)nn3c2N2CCC3(CC2)OCCO3)c(F)c1` [compound 609] registered a logP of 3.22.
In turn, `CC1CC(C)CN(c2c(-c3ccc(F)cc3F)c(Cl)nc3nc(C4CC4)nn23)C1` (stereo not drawn) [compound 610] returned a logP of 4.72.
The value for `CC1CCCCN1c1c(-c2ccc(F)cc2F)c(Cl)nc2nc(C3CC3)nn12` (stereo not drawn) [compound 611] was 4.3; that for `CC1CCCN(c2c(-c3ccc(F)cc3F)c(Cl)nc3nc(C4CC4)nn23)C1` (stereo not drawn) [compound 612] was 4.37.
The value for `CC1CCN(c2c(-c3ccc(F)cc3F)c(Cl)nc3nc(C4CC4)nn23)CC1` [compound 613] was 4.41.
In turn, `OC1CCCN(c2c(-c3ccc(F)cc3F)c(Cl)nc3nc(C4CC4)nn23)C1` (stereo not drawn) [compound 614] yielded a logP of 2.57.
The figure for `CC1(C)CCN(c2c(-c3ccc(F)cc3F)c(Cl)nc3nc(C4CC4)nn23)CC1` [compound 615] is 4.67.
